1 molecule from PMC4701221, “Novel Promising Estrogenic Receptor Modulators: Cytotoxic and Estrogenic Activity of Benzanilides and Dithiobenzanilides” (PLoS ONE, 2016) can be followed below.

Test [1] concerns the target T1, estrogen receptor (Homo sapiens, UniProt P03372).
T1 construct: MCF-7 cells, which endogenously express ERα receptor; endogenous in cells; host or cells: MCF-7
T1 sequence (P03372 1-595): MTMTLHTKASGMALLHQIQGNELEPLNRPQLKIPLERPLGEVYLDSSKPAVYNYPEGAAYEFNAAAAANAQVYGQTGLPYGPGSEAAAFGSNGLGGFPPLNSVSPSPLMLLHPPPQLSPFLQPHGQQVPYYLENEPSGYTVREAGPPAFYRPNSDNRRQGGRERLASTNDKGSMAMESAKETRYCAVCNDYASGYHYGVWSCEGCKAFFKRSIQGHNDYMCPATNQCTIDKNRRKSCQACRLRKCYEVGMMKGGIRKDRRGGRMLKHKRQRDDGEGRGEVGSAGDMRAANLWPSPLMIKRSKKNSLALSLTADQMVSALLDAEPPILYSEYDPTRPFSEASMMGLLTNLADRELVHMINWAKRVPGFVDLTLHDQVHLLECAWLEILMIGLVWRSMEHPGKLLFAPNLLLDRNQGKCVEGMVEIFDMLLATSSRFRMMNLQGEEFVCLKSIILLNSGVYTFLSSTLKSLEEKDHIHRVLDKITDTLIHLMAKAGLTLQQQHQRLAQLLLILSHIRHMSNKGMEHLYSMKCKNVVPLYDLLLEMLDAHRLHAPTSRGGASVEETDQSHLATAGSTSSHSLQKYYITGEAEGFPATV
Put plainly: Estrogen Receptor luciferase assay in MCF-7 cells (endogenous ER). In kind it is cell-based. The conditions noted are these: MCF-7 transfected with p3xERRE/ERE-luciferase, Fig 3C. From the text:
To obtain a eukaryotic vector expressing only the ER-α nuclear receptor, a construct was designed by cloning a KpnI-BamHI fragment from plasmid pEGFP-C1-ERα containing the ERα coding sequence that includes a stop signal into the pEGFP-N3 plasmid (Clontech Laboratories, Palo Alto, CA) under the control of the CMV promoter. This construction was termed pEGFP-N-ERα, and although it encoded both human ERα receptor and GFP protein, only the former is expressed. For mock transfections, pEGFP-N3 plasmid was digested with BglII and NotI and religated after polishing DNA ends to remove GFP coding sequence. Plasmid sequence was confirmed by automatic sequencing. Prior to transfection, cells were seeded in 48 well plates at density of 1.5 x 10^4 cells/well and incubated for 24 h to reach a cell confluence of 80–90%. […] MCF-7 cells, which endogenously express ERα receptor, were transfected with p3xERRE/ERE-luciferase plus the pRLTK Renilla luciferase control plasmid (95:5). Firefly and Renilla luciferase activities were measured using the Dual Luciferase Assay System (Promega, Madison, WI, USA), following a standard protocol using a Sirius L luminometer (Berthold Technologies, Bad Wildbad, Germany). Data were expressed as relative changes in luciferase activity and normalized to 100%.

For test [2], the system named is MDA-MB-231 cells. Put plainly: MTT assay, MDA-MB-231. The class given is cell-based, human. The protocol: The cell lines used in the cytotoxicity study, besides MCF-12A, were purchased from European Collection of Cell Culture (ECACC, Salisbury, UK): HEK293 (human embryonic kidney, ATTC no. CRL-1573), A549 (Human lung carcinoma, ECACC no. 86012804), CCD39Lu (Human lung fibroblasts, ECACC no. 90110512), MCF-7 (Human breast adenocarcinoma, ECACC no. 86012803) and MDA-MB-231 (Human breast adenocarcinoma ECACC no. 92020424). Cell lines were cultured in DMEM medium without phenol red and supplemented with 10% (v/v) FBS, 1% penicillin-streptomycin and 1% L-glutamine. MCF-12A (ATTC no. […]) was purchased from American Type Culture Collection (ATCC Manassas, VA 20110 USA). MCF-12A cells were kept in 1:1 mixture of Dulbecco’s modified Eagle’s medium and Ham’s F12 medium, 20 ng/ml human epidermal growth factor, 100 ng/ml cholera toxin, 0.01 mg/ml bovine insulin, 500 ng/ml hydrocortisone and 5% horse serum. All cell lines were cultured at 37°C, in a humidified atmosphere containing 5% CO2.
Compounds were dissolved in DMSO to the final concentration of […]. A549, CCD39Lu, MCF-7, MDA-MB-231 and MCF-12A cells were seeded in 96 wells plates at density 2x10^4 cells/well and incubated overnight as described above. Subsequently, cells were treated with tested compounds at concentrations: 100 μM; 50 μM; 25μM; 12.5μM; 6 μM; 3 μM; 1.5 μM. […] Cells were incubated 72 h at 37°C in a humidified atmosphere containing 5% CO2 in the cell culture media appropriate for each cell line. Then, the medium was aspirated and 170 μl MTT solution (5mg/ml) was added to each well. Plates were incubated for 2 hours at 37°C, and then plates were centrifuged at 1200 rpm for 3 minutes. The formazan crystals were dissolved in 200 μl DMSO and plates were further agitated on a plate shaker at 300–500 rpm for 10 minutes. Absorbance at 570 nm (with reference wavelenght 650 nm) was measured using a plate reader (Biotek Instruments, Elx-800). Cell viability was calculated as a percentage relative to the control.

Bounds are passed on as bounds.

For orientation: IC50 means the midpoint of a concentration-inhibition curve. For the molecule `Fc1ccc(NC(=S)c2ccc(NC(=S)c3ccc(F)cc3)cc2)cc1` [Compound 18], in test [1], the “Transcriptional (luciferase) activity in MCF-7” value is “significantly higher transcriptional activity compared to estradiol”. For the same molecule, the “Toxicity/effect in MTT assay (in words), MDA-MB-231” value in test [2] (72 h) is on record as “non-significant effects”. Moreover, the IC50 in test [2] (Homo sapiens, MDA-MB-231, 72 h, estrogen independent breast adenocarcinoma, read-out: Cytotoxic activity IC50, MDA-MB-231) was greater than 100 µM.
